Measurements as given in patent publication US12378224B2 (Dong-A Socio Holdings Co., Ltd., priority 2016, dated 2025).

Molecular target: human c-MER catalytic domain (Homo sapiens (Human), UniProt Q12866)
Experiment: TR-FRET Kinase Activity Biochemical Assay (LanthaScreen)
Details: 10 uM ATP, 1 hour, kinase not given
Outline: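 Activity was quantified as the ratio of 495 nm to 520 nm emission (excitation 340 nm) in a LanthaScreen TR-FRET format. The enzyme was the human c-MER catalytic domain, and the substrate was fluorescein-poly-GT. Detection used 2 nM Tb anti-phosphotyrosine antibody for 30 min after termination with 10 mM EDTA.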

Chain of human c-MER catalytic domain (Q12866 587-858): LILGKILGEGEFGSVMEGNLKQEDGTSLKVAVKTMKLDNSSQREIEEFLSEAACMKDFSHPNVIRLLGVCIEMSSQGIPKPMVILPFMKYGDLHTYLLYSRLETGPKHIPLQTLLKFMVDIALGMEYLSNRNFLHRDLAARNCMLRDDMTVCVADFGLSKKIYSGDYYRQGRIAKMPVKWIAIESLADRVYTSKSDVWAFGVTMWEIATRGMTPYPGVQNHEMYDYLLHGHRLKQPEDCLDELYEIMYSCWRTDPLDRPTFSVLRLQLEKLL

SMILES | IC50
CN1CCC(NCc2ccc(-c3ccc(C(=O)N4CC[C@@H](NC(=O)c5cc(-c6cnn(C)c6)cnc5N)C4)cc3)cc2)CC1 [Example 549, (R)-2-amino-5-(1-methyl-1H-pyrazol-4-yl)-N-(1-(4′-(((1-methylpiperidin-4-yl)amino)methyl)-[1,1′-biphenyl]-4-carbonyl)pyrrolidin-3-yl)nicotinamide] | 0.1 to 1 µM
CN(C)CCCOc1ccc(-c2ccc(C(=O)N3CC[C@@H](NC(=O)c4cc(-c5cnn(C)c5)cnc4N)C3)cc2)cc1 [Example 551, (R)-2-amino-N-(1-(4′-(3-(dimethylamino)propoxy)-[1,1′-biphenyl]-4-carbonyl)pyrrolidin-3-yl)-5-(1-methyl-1H-pyrazol-4-yl)nicotinamide] | 0.01 to 0.1 µM
COc1ccc(-c2cnc(N)c(C(=O)N[C@@H]3CCN(C(=O)c4ccc(-c5ccccc5)cc4)C3)c2)cc1 [Example 555, (R)—N-(1-([1,1′-biphenyl]-4-carbonyl)pyrrolidin-3-yl)-2-amino-5-(4-methoxyphenyl)nicotinamide] | 0.1 to 1 µM
Nc1ncc(-c2ccc(N3CCOCC3)cc2)cc1C(=O)N[C@@H]1CCN(C(=O)c2ccc(-c3ccccc3)cc2)C1 [Example 557, (R)—N-(1-([1,1′-biphenyl]-4-carbonyl)pyrrolidin-3-yl)-2-amino-5-(4-morpholinophenyl)nicotinamide] | 0.01 to 0.1 µM
CC(C)(C)OC(=O)N1CCC(n2cc(-c3cnc(N)c(C(=O)N[C@@H]4CCN(C(=O)c5ccc(-c6ccccc6)cc5)C4)c3)cn2)CC1 [Example 561, tert-butyl (R)-4-(4-(5-((1-([1,1′-biphenyl]-4-carbonyl)pyrrolidin-3-yl)carbamoyl)-6-aminopyridin-3-yl)-1H-pyrazol-1-yl)piperidine-1-carboxylate] | 0.01 to 0.1 µM
CC(C)(c1ccc(-c2cnc(N)c(C(=O)N[C@@H]3CCN(C(=O)c4ccc(-c5ccccc5)cc4)C3)c2)cc1)N1CCNCC1 [Example 564, (R)—N-(1-([1,1′-biphenyl]-4-carbonyl)pyrrolidin-3-yl)-2-amino-5-(4-(2-(piperazin-1-yl)propan-2-yl)phenyl)nicotinamide] | < 0.01 µM
Nc1ncc(-c2ccc(CN3CCOCC3)cc2)cc1C(=O)N[C@@H]1CCN(C(=O)c2ccc(-c3ccccc3)cc2)C1 [Example 569, (R)—N-(1-([1,1′-biphenyl]-4-carbonyl)pyrrolidin-3-yl)-2-amino-5-(4-(morpholinomethyl)phenyl)nicotinamide] | 0.01 to 0.1 µM
Nc1ncc(-c2ccc(N3CCOCC3)cc2)cc1C(=O)N[C@@H]1CCN(C(=O)c2ccc(-c3ccccc3Cl)cc2)C1 [Example 571, (R)-2-amino-N-(1-(2′-chloro-[1,1′-biphenyl]-4-carbonyl)pyrrolidin-3-yl)-5-(4-morpholinophenyl)nicotinamide] | 0.01 to 0.1 µM
Nc1ncccc1C(=O)N[C@@H]1CCN(C(=O)c2ccc(-c3ccc(F)cc3Cl)cc2)C1 [Example 579, (R)-2-amino-N-(1-(2′-chloro-4′-fluoro-[1,1′-biphenyl]-4-carbonyl)pyrrolidin-3-yl)nicotinamide] | 0.01 to 0.1 µM
Nc1ncc(-c2ccc(C(=O)NCCCN3CCCC3=O)cc2)cc1C(=O)N[C@@H]1CCN(C(=O)c2ccc(-c3ccccc3Cl)cc2)C1 [Example 595, (R)-2-amino-N-(1-(2′-chloro-[1,1′-biphenyl]-4-carbonyl)pyrrolidin-3-yl)-5-(4-((3-(2-oxopyrrolidin-1-yl)propyl)carbamoyl)phenyl)nicotinamide] | 0.01 to 0.1 µM
CN1CCN(Cc2cccc(N3CC[C@H](OC(=O)N4CC[C@@H](NC(=O)c5cc(-c6cnn(C)c6)cnc5N)C4)C3)c2)CC1 [Example 626, (S)-1-(3-((4-methylpiperazin-1-yl)methyl)phenyl)pyrrolidin-3-yl (R)-3-(2-amino-5-(1-methyl-1H-pyrazol-4-yl)nicotinamido)pyrrolidine-1-carboxylate] | > 1 µM
CN1CCN(Cc2ccc(-c3cc(CN4CC[C@@H](NC(=O)c5cc(-c6cnn(C)c6)cnc5N)C4)ccc3F)cc2)CC1 [Example 633, (R)-2-amino-N-(1-((6-fluoro-4′-((4-methylpiperazin-1-yl)methyl)-[1,1′-biphenyl]-3-yl)methyl)pyrrolidin-3-yl)-5-(1-methyl-1H-pyrazol-4-yl)nicotinamide] | 0.1 to 1 µM
Cn1cc(-c2cnc(N)c(C(=O)N[C@@H]3CCN(C(=O)c4ccc(-c5ccc(S(=O)(=O)N6CCC6)cc5)cc4)C3)c2)cn1 [Example 660, (R)-2-amino-N-(1-(4′-(azetidin-1-ylsulfonyl)-[1,1′-biphenyl]-4-carbonyl)pyrrolidin-3-yl)-5-(1-methyl-1H-pyrazol-4-yl)nicotinamide] | 0.1 to 1 µM
Cn1cc(-c2cnc(N)c(C(=O)NC3CN(C(=O)c4cccc(-c5ccccc5)c4)C3)c2)cn1 [Example 670, N-(1-([1,1′-biphenyl]-3-carbonyl)azetidin-3-yl)-2-amino-5-(1-methyl-1H-pyrazol-4-yl)nicotinamide] | > 1 µM
Cn1cc(-c2cnc(N)c(C(=O)NC3(CO)CCN(C(=O)c4ccc(-c5ccccc5)cc4)C3)c2)cn1 (centres unmarked) [Example 671, N-(1-([1,1′-biphenyl]-4-carbonyl)-3-(hydroxymethyl)pyrrolidin-3-yl)-2-amino-5-(1-methyl-1H-pyrazol-4-yl)nicotinamide] | 0.01 to 0.1 µM
Cn1cc(-c2cnc(N)c(C(=O)NC3(CO)CCN(C(=O)c4cccc(-c5ccccc5)c4)C3)c2)cn1 (centres unmarked) [Example 672, N-(1-([1,1′-biphenyl]-3-carbonyl)-3-(hydroxymethyl)pyrrolidin-3-yl)-2-amino-5-(1-methyl-1H-pyrazol-4-yl)nicotinamide] | > 1 µM
CCOC(=O)C1CN(C(=O)c2ccc(-c3ccccc3)cc2)CC1NC(=O)c1cc(-c2cnn(C)c2)cnc1N (centres unmarked) [Example 687, ethyl 1-([1,1′-biphenyl]-4-carbonyl)-4-(2-amino-5-(1-methyl-1H-pyrazol-4-yl)nicotinamido)pyrrolidine-3-carboxylate] | > 1 µM
COC(=O)[C@H]1C[C@@H](NC(=O)c2cc(-c3cnn(C)c3)cnc2N)CN1C(=O)c1ccc(-c2ccc(F)cc2Cl)cc1 [Example 689, methyl (2R,4R)-4-(2-amino-5-(1-methyl-1H-pyrazol-4-yl)nicotinamido)-1-(2′-chloro-4′-fluoro-[1,1′-biphenyl]-4-carbonyl)pyrrolidine-2-carboxylate] | > 1 µM
CCOC(=O)C1CN(C(=O)c2ccc(-c3ccc(F)cc3Cl)cc2)CC1NC(=O)c1cc(-c2cnn(C)c2)cnc1N (centres unmarked) [Example 690, ethyl 4-(2-amino-5-(1-methyl-1H-pyrazol-4-yl)nicotinamido)-1-(2′-chloro-4′-fluoro-[1,1′-biphenyl]-4-carbonyl)pyrrolidine-3-carboxylate] | > 1 µM

The remaining lines, values ahead:

IC50 | SMILES
0.01 to 0.1 µM | Cn1cc(-c2cnc(N)c(C(=O)N[C@@H]3CCN(C(=O)c4ccc(-c5ccc(O[C@H]6CCNC6)cc5)cc4)C3)c2)cn1 [Example 541, 2-amino-5-(1-methyl-1H-pyrazol-4-yl)-N—((R)-1-(4′-(((S)-pyrrolidin-3-yl)oxy)-[1,1′-biphenyl]-4-carbonyl)pyrrolidin-3-yl)nicotinamide]
0.1 to 1 µM | CC(O)c1ccc(-c2ccc(C(=O)N3CC[C@@H](NC(=O)c4cc(-c5cnn(C)c5)cnc4N)C3)cc2)s1 (stereo partly drawn) [Example 542, 2-amino-N-((3R)-1-(4-(5-(1-hydroxyethyl)thiophen-2-yl)benzoyl)pyrrolidin-3-yl)-5-(1-methyl-1H-pyrazol-4-yl)nicotinamide]
0.01 to 0.1 µM | Cc1ccc(-c2ccc(C(=O)N3CC[C@@H](Nc4n[nH]c5ncc(-c6cnn(C)c6)cc45)C3)cc2)s1 [Example 615, (R)-(3-((5-(1-methyl-1H-pyrazol-4-yl)-1H-pyrazolo[3,4-b]pyridin-3-yl)amino)pyrrolidin-1-yl)(4-(5-methylthiophen-2-yl)phenyl)methanone]
0.1 to 1 µM | Cn1cc(-c2cnc3[nH]nc(N[C@@H]4CCN(C(=O)c5ccc(-c6ccccc6)cc5)C4)c3c2)cn1 [Example 616, (R)-[1,1′-biphenyl]-4-yl(3-((5-(1-methyl-1H-pyrazol-4-yl)-1H-pyrazolo[3,4-b]pyridin-3-yl)amino)pyrrolidin-1-yl)methanone]
0.01 to 0.1 µM | Cn1cc(-c2cnc3[nH]nc(N[C@@H]4CCN(C(=O)c5ccc(-c6ccccc6Cl)cc5)C4)c3c2)cn1 [Example 617, (R)-(2′-chloro-[1,1′-biphenyl]-4-yl)(3-((5-(1-methyl-1H-pyrazol-4-yl)-1H-pyrazolo[3,4-b]pyridin-3-yl)amino)pyrrolidin-1-yl)methanone]
0.1 to 1 µM | Cn1cc(-c2cnc3[nH]nc(N[C@@H]4CCN(C(=O)c5ccc(-c6ccc(Oc7ccc(N)cc7)cc6)cc5)C4)c3c2)cn1 [Example 620, (R)-(4′-(4-aminophenoxy)-[1,1′-biphenyl]-4-yl)(3-((5-(1-methyl-1H-pyrazol-4-yl)-1H-pyrazolo[3,4-b]pyridin-3-yl)amino)pyrrolidin-1-yl)methanone]
0.1 to 1 µM | CSc1ccc(-c2ccc(C(=O)N3CC[C@@H](NC(=O)c4cc(-c5cnn(C)c5)cnc4N)C3)cc2)cc1 [Example 665, (R)-2-amino-5-(1-methyl-1H-pyrazol-4-yl)-N-(1-(4′-(methylthio)-[1,1′-biphenyl]-4-carbonyl)pyrrolidin-3-yl)nicotinamide]
0.1 to 1 µM | CCSc1ccc(-c2ccc(C(=O)N3CC[C@@H](NC(=O)c4cc(-c5cnn(C)c5)cnc4N)C3)cc2)cc1 [Example 666, (R)-2-amino-N-(1-(4′-(ethylthio)-[1,1′-biphenyl]-4-carbonyl)pyrrolidin-3-yl)-5-(1-methyl-1H-pyrazol-4-yl)nicotinamide]
0.01 to 0.1 µM | Cn1cc(-c2cnc(N)c(C(=O)N[C@@H]3CCN(C(=O)c4ccc(-c5ccc(/C=C/C(=O)O)cc5)cc4)C3)c2)cn1 [Example 677, (R,E)-3-(4′-(3-(2-amino-5-(1-methyl-1H-pyrazol-4-yl)nicotinamido)pyrrolidine-1-carbonyl)-[1,1′-biphenyl]-4-yl) acrylic acid]
0.1 to 1 µM | Cn1cc(-c2cnc(N)c(C(=O)N[C@@H]3CCN(C(=O)c4ccc(-c5ccc(CCC(=O)O)cc5)cc4)C3)c2)cn1 [Example 678, (R)-3-(4′-(3-(2-amino-5-(1-methyl-1H-pyrazol-4-yl)nicotinamido)pyrrolidine-1-carbonyl)-[1,1′-biphenyl]-4-yl) propanoic acid]
